The values that follow come from PMC7391777, “Inhibition of acetyl-CoA carboxylase by spirotetramat causes growth arrest and lipid depletion in nematodes” (Scientific Reports, 2020).

This experiment addresses T1, C. elegans ACC (POD-2) (Caenorhabditis elegans, UniProt H2L0M0).
T1 construct: native enzyme in total protein extract of C. elegans pellet, not purified
The experiment in a line: ACC activity in total protein extract, radiolabeled sodium bicarbonate. Type of experiment: biochemical. Particulars: total protein extract of C. elegans.

T1 sequence (H2L0M0 1-2165): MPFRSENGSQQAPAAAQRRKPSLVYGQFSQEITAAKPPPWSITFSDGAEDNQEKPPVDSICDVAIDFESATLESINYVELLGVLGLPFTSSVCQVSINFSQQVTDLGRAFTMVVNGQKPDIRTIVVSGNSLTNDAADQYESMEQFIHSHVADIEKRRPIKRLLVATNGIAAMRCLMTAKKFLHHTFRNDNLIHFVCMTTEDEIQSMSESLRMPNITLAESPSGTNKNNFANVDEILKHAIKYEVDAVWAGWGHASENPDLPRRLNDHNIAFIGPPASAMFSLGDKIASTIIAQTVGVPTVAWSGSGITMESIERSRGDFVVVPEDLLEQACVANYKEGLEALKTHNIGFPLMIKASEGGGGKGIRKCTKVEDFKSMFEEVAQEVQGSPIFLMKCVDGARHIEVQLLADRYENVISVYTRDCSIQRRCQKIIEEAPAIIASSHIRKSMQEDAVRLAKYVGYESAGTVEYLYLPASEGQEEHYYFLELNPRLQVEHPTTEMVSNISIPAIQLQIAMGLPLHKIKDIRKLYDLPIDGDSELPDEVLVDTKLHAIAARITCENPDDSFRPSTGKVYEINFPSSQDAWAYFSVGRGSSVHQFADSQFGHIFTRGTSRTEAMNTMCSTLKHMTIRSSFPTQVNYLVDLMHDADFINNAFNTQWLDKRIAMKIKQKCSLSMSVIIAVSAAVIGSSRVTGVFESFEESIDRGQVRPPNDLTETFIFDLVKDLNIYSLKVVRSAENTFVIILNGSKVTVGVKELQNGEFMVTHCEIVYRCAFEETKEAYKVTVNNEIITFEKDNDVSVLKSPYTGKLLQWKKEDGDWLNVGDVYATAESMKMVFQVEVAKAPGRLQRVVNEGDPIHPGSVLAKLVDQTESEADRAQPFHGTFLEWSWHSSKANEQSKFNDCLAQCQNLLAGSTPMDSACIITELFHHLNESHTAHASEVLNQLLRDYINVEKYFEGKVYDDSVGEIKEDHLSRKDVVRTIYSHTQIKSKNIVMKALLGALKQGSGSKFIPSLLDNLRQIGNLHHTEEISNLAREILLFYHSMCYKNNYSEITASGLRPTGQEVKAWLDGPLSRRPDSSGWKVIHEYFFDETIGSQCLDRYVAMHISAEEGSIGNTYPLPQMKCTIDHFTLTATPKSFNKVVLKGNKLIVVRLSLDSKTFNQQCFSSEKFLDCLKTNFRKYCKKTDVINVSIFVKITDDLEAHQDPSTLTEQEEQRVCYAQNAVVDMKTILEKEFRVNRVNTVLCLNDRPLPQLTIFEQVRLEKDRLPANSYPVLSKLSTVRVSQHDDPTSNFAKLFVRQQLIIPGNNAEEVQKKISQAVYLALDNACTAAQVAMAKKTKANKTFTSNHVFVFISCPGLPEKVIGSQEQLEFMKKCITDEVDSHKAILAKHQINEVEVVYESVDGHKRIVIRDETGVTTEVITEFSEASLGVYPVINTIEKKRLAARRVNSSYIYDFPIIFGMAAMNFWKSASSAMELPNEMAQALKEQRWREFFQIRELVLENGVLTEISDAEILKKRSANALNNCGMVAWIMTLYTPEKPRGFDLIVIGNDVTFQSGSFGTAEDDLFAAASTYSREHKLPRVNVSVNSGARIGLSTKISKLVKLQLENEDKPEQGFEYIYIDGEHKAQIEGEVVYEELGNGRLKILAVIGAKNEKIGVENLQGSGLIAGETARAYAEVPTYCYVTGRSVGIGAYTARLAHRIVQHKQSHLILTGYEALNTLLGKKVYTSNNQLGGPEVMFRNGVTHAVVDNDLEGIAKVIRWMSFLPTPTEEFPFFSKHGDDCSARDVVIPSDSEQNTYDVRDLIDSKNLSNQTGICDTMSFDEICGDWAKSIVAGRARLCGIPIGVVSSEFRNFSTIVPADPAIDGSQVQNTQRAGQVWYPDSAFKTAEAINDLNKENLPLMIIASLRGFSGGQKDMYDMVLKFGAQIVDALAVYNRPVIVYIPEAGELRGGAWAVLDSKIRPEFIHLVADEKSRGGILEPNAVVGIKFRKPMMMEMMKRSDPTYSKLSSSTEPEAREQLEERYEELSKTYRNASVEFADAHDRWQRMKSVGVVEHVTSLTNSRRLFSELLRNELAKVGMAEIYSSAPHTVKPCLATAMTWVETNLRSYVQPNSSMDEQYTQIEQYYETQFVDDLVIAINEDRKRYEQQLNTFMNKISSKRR

One may read the IC50 as the concentration needed to halve the response being measured. High values mean lower potency, low ones higher potency. For `COC1CCC2(CC1)NC(=O)C(c1cc(C)ccc1C)=C2O` (stereo not shown) [SPT-enol], half-maximal inhibition (IC50) was put at 50 µM.
